Patent US20250171434A1, “SEC61 INHIBITORS AND USE THEREOF” (KEZAR LIFE SCIENCES, INC., priority 2022, published 2025)

Tests used:
[1] = tested on: IL-2-FL/Gaussia Luciferase; assay: Dox Inducible IL2-FL-Gluc Assay; format: cell-based; conditions: Table 3; for IC50: Flp-In 293 T-REx cells, 24 hours with doxycycline, read-out: 24 hr Dox Inducible IL2FLGluc 293FRT/TO: Mean IC50; for 24 hr Dox Inducible IL2FLGluc 293FRT/TO: IL2/PD1: ratio of IC50s IL2/PD1
Procedure, shortened: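 Compounds in DMSO/medium with doxycycline were applied to a 293 T-REx stable line expressing an IL-2 (aa 1-153)–Gaussia luciferase fusion under tetracycline-regulated control, cells seeded one day earlier; incubation at 37 °C, 5% CO2. Structures drawn without stereochemistry were tested as stereoisomer mixtures.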

[2] = tested on: HER3-ss+4aa/Gaussia Luciferase; assay: Dox-Inducible Her3-ss-Gluc Assay; format: cell-based; conditions: Flp-In 293 T-REx cells, 24 hours with doxycycline; Table 3; read-out: 24 hr Dox Inducible Her3(ss + 4)Gluc 293FRT/TO: Mean IC50
Procedure, shortened: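 Compounds were diluted in DMSO/media containing doxycycline. They were added to Flp-In 293 T-REx cells plated the previous day, then incubated at 37 °C under 5% CO2. These cells stably express, under T-REx control, Gaussia luciferase fused to the HER3 signal sequence plus 4 amino acids.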

[3] = Liver Microsome Stability Assay, rat; format: in vitro ADME; conditions: rat liver microsomes 1.0 mg/mL, 1.0 uM compound, 37° C., 1 mM NADPH
Procedure, shortened: (§1)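 Each species' liver microsomes at 1.0 mg/mL received 1.0 uM compound in 0.1 M potassium phosphate with 0.4% DMSO. Reactions proceeded at 37° C in the presence or absence of 1 mM NADPH. Quenching followed at 0 and 30 minutes.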

[4] = tested on: multiple myeloma cell line NCI-H929; assay: H929 Cell Viability Assay; format: cell-based, human; conditions: Homo sapiens; NCI-H929 cells, 48 hours, Celltiter-Glo; read-out: 48 hr H929 Viability Celltiter-Glo: Mean EC50
Procedure, shortened: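 Luminescent CellTiter-Glo read-out of viability after a 48 h exposure (37° C, 5% CO2) of NCI-H929 myeloma cells to compound dilutions in RPMI 1640 plus 10% FBS. Data for structures drawn without stereochemistry refer to stereoisomer mixtures.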

[5] = tested on: TNFα-FL/Gaussia Luciferase; assay: Dox Induced TNFα-FL-Gluc Assay; format: cell-based; conditions: Table 3; for IC50: Flp-In 293 T-REx cells, 24 hours with doxycycline, read-out: 24 hr Dox Inducible TNFaFLGluc 293FRT/TO: Mean IC50; for 24 hr Dox Inducible TNFaFLGluc 293FRT/TO: TNF/PD1: ratio of IC50s TNF/PD1
Procedure, shortened: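 Compound was added with doxycycline to cells plated a day earlier, incubating at 37° C under 5% CO2. The reporter line is 293 T-REx expressing a TNFα (1-233)–Gaussia luciferase fusion under tetracycline-regulated control.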

[6] = Liver Microsome Stability Assay, mouse; format: in vitro ADME; conditions: mouse liver microsomes 1.0 mg/mL, 1.0 uM compound, 37° C., 1 mM NADPH
Procedure, shortened: as §1

[7] = Liver Microsome Stability Assay, human; format: in vitro ADME; conditions: human liver microsomes 1.0 mg/mL, 1.0 uM compound, 37° C., 1 mM NADPH
Procedure, shortened: as §1

[8] = tested on: PD1-ss+10aa/Gaussia Luciferase; assay: Dox-Induced PD1-ss-Gluc Assay; format: cell-based; conditions: Flp-In 293 T-REx cells, 24 hours with doxycycline; Table 3; read-out: 24 hr Dox Inducible PD1ssGluc 293FRT/TO: Mean IC50
Procedure, shortened: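 Flp-In 293 T-REx cells stably carrying a doxycycline-inducible Gaussia luciferase fused to the PD1 signal sequence plus 10 aa were plated the day before. Compound dilutions in DMSO/media containing doxycycline were then added and incubated at 37 °C, 5% CO2. Data for undefined stereochemistry refer to stereoisomer mixtures.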

[9] = Liver Microsome Stability Assay, monkey; format: in vitro ADME; conditions: monkey liver microsomes 1.0 mg/mL, 1.0 uM compound, 37° C., 1 mM NADPH
Procedure, shortened: as §1

[10] = tested on: multiple myeloma cell line U266B1; assay: U266 Cell Viability Assay; format: cell-based; conditions: Homo sapiens, U-266; U266B1 cells, 48 hours, Celltiter-Glo; read-out: 48 hr U266 Viability Celltiter-Glo: Mean EC50
Procedure, shortened: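 CellTiter-Glo luminescence was read after a 48 h compound exposure (37 °C, 5% CO2) of human U266B1 myeloma cells grown in 10% FBS-supplemented RPMI 1640. Data for structures shown without defined stereochemistry refer to stereoisomer mixtures.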

| SMILES | IC50 [1] [µM] | 24 hr Dox Inducible IL2FLGluc 293FRT/TO: IL2/PD1 [1] | IC50 [2] [µM] | Liver Microsome Stability (Multiple Species): Rat - % Remaining after 30 min w/ NADPH (%) [3] [%] | EC50 [4] [µM] | IC50 [5] [µM] | 24 hr Dox Inducible TNFaFLGluc 293FRT/TO: TNF/PD1 [5] | Liver Microsome Stability (Multiple Species): Mouse - % Remaining after 30 min w/ NADPH (%) [6] [%] | Liver Microsome Stability (Multiple Species): Human - % Remaining after 30 min w/ NADPH (%) [7] [%] | IC50 [8] [µM] | Liver Microsome Stability (Multiple Species): Monkey - % Remaining after 30 min w/ NADPH (%) [9] [%] | EC50 [10] [µM] |
| --- | --- | --- | --- | --- | --- | --- | --- | --- | --- | --- | --- | --- |
| C/C(=C\c1cn(C(C)C)cn1)c1csc(NC(=O)c2cccn2Cc2ccncc2)n1 [Compound B25, (E)-N-(4-(1-(1-isopropyl-1H-imidazol-4-yl)prop-1-en-2-yl)thiazol-2-yl)-1-(pyridin-4-ylmethyl)-1H-pyrrole-2-carboxamide] | > 25 | >62 | > 25 | <1 | 13.7 | > 25 | >61 | 0.05 | <1 | 0.404 | <1 | 17.3 |
| O=C(Nc1nc(/C=C/C2CCCC2)cs1)c1cccn1Cc1ccnc(F)c1 [Compound B26, (E)-N-(4-(2-cyclopentylvinyl)thiazol-2-yl)-1-((2-fluoropyridin-4-yl)methyl)-1H-pyrrole-2-carboxamide] | 0.737 | 6 | 0.332 | 10 | 7.13 | 3.82 | 33 | 31 | 59 | 0.117 | <1 | 19.7 |
